Consider seven compounds from patent US8691802B2, “Stabilized compositions comprising a therapeutically active agent and an oxidizing preservative” (Allergan, Inc., priority 2005, dated 2014).

The conditions of the data set: for Stabilized Chlorine Dioxide Concentration: ingredient added to proprietary brimonidine composition; for Stabilization of chlorine dioxide by the excipient (in words): proprietary brimonidine composition.

The structures appear in SMILES notation. Like-named read-outs stand apart in the source and are kept apart here.

Description: Each of the excipients was added, in the amounts shown, to a proprietary composition comprising brimonidine as a therapeutically active agent.

Consider `O=C(O)CN(CCN(CC(=O)O)CC(=O)O)CC(=O)O` [EDTA], for which the “Stabilization of chlorine dioxide by the excipient (in words)” value (“Stabilization of chlorine dioxide” below) is on record as “do not stabilize”. Besides, the “Stabilized Chlorine Dioxide Concentration” value (0 Days) came to 44 ppm. Also, the “Stabilized Chlorine Dioxide Concentration” value (7 Days) is given as 2 ppm. The “Stabilized Chlorine Dioxide Concentration” value (14 Days) is 0 ppm.
For `NCCN` [Ethylene diamine], the “Stabilization of chlorine dioxide” value is “do not stabilize”.
As to `O=C([O-])/C(O)=C(\O)C(=O)[O-].[Na+].[Na+]` [Sodium Dihydroxyfurmarate], the “Stabilized Chlorine Dioxide Concentration” value by setting is: (0 Days) 37 ppm; (7 Days) 13 ppm; (14 Days) 0 ppm.
As to `O=C[O-].[Na+]` [Sodium Formate], the “Stabilized Chlorine Dioxide Concentration” value is, setting by setting: (0 Days) 42 ppm; (7 Days) 40 ppm; (14 Days) 36 ppm.
The like results for `CC(O)C(=O)[O-].[Na+]` (stereo not shown) [Sodium Lactate] were, in that order, 45 ppm, 40 ppm and 37 ppm.
Consider `O=C([O-])C(=O)[O-].[Na+].[Na+]` [Sodium Oxalate], for which the “Stabilization of chlorine dioxide” value is “similarly ineffective”. Besides, under “0 Days”, the “Stabilized Chlorine Dioxide Concentration” value amounted to 39 ppm. For the same compound, the “Stabilized Chlorine Dioxide Concentration” value (7 Days) came out at 38 ppm. Moreover, the “Stabilized Chlorine Dioxide Concentration” value (14 Days) is given as 35 ppm.
Take `CC(=O)C(=O)[O-].[Na+]` [Sodium Pyruvate]: the “Stabilization of chlorine dioxide” value is “similarly ineffective”.
